Values quoted from earlier work, collected in patent US20110305747A1, “COMBINATION OF DAPSONE WITH OTHER ANTI-ACNE AGENTS” (ALLERGAN, INC., priority 2009, published 2011).
Values after ≈ are worked out from the molar mass of the structure shown.

Assays:
spontaneous comedones = settings: Rhino mouse containing a high density of spontaneous comedones (Allec et al, 1997)
[1] = system: CRABPII (cellular retinol-binding protein II)

In the case of Nc1ccc(S(=O)(=O)c2ccc(N)cc2)cc1 [dapsone], the “MIC90 against P. acnes” value (P. acnes) is listed as 8 µg/mL (≈ 32.2 µM).

In the case of COc1ccc(-c2ccc3cc(C(=O)O)ccc3c2)cc1C12CC3CC(CC(C3)C1)C2 [adapalene], the Comedolytic activity (spontaneous comedones) is listed as “comedolytic activity”, the “mean Cmax of adapalene” value (0.3% adapalene gel on face, chest and back, approx. 2 mg/cm2, Day 10 of treatment, 15 of 16 patients quantifiable (LOQ=0.1 ng/mL)) is listed as 0.553 ± 0.466 ng/mL and the “Mean AUC0-24hr” value (0.3% adapalene gel, approx. 2 mg/cm2, Day 10, 15 of the 16 patients) is listed as 8.37 ± 8.46 ng·h/mL. The “Terminal apparent half-life, mean” value (0.3% adapalene gel, 15 of 16 patients) was 17.2 ± 10.2 h, the “Detection in plasma 72 hours after the last application” value (0.3% adapalene gel, all but one subject) was “not detected” and the “Binding to CRABPII” value [1] was “does not bind”.
